Laboratory results: paper PMC9385722 (Scientific Reports, 2022)

Molecular target: T1, TaHeR (Thermoplasmatales archaeon SG8-52-1, UniProt Z9O312AX90)
T1 construct: wild type, N-terminal 6xHis tag, pET21a(+), E. coli C43(DE3), purified in octyl glucoside; symmetric dimer, one protomer in asymmetric unit
T1 sequence (Z9O312AX90 1-259): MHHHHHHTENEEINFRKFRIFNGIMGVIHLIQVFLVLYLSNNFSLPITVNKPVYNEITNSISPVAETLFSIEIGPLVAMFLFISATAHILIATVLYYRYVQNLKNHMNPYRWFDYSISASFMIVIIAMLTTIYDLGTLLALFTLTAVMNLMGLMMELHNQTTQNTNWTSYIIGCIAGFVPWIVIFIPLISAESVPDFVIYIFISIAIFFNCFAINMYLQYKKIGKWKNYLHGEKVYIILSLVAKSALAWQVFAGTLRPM
Experiment: absorption red-shift titration with NaCl
Format: binding
Conditions: pH 5.0, up to 300 mM NaCl; anion site in Schiff base cavity near protonated Glu-108; crystal structure at pH 4.5 also shows a second, extracellular chloride

SMILES: Cl [chloride]
- Kd: ~67 mM
